From patent publication US5716528A, “Peroxide water treatment process” (Domtar Inc., priority 1995, dated 1998)

Legend:
[1] = Field trials: peroxide oxidation of wood preserving wastewater, then carbon adsorption
Protocol: In field trials 900 liter samples of wood preserving wastewater of known Chemical Oxygen Demand (COD) was treated as follows:
This antifoam agent was added because foaming was expected in view of the large volume of waste water being treated.
An amount of Fe^2+ (as 0.1M or 1M ferrous sulphate heptahydrate) equivalent to 5-7% of the total H2 O2 by weight was added with fast agitation. The pH was kept at 3-3.8 at a temperature of 40°±5° C.
The reaction was judged complete when the colour of the reaction mixture turned light yellow similar to that of a ferric ions solution (3-3.5 hrs.)
The catalyst was separated by co-precipitation with alum or poly electrolytes.

[2] = Effect of peroxide/penta weight ratios on the oxidation of pentachlorophenol; conditions: Fe2+/H2O2 3%, pH 3.5
Protocol: a) Effect of peroxide/penta weight ratios on the oxidation of pentachlorophenol
Appropriate amounts of technical grade pentachlorophenol were dissolved in deionized water (the pH of which was kept at 8 to 9 with 5% NaOH solution) to yield solutions containing 19.0, 38.1, 66.6 and76.2 ppm pentachlorophenol.
100 ml of each of the above solutions was placed in each of four 100 ml beakers.
157.5 mg H2 O2 (≈0.42 ml of 35% solution) were added to each beaker to give peroxide/penta weight ratios of 82.7, 41.3, 27.6 and 20.7, respectively.
4.74 mg of Fe^2+ (≈0.85 ml of 0.1 molar solution of ferrous sulphate heptahydrate) were then added to give a constant Fe^2+ /H2 O2 weight ratio of 3% in each beaker.

Oc1c(Cl)c(Cl)c(Cl)c(Cl)c1Cl [Pentachlorophenol, pentachlorophenol]
removed after oxidation followed by carbon adsorption ([1]; field trial): > 99.3% | removed after oxidation only ([1]; field trial): 92.60-98.75% | destruction levels of contaminants by oxidation ([1]; summary of process): ~99.9% | PCP destruction ([2]; PCP 19.0 ppm, H2O2/PCP ratio 82.7): 96.2% | PCP destruction ([2]; PCP 38.1 ppm, H2O2/PCP ratio 41.3): 98.2% | PCP destruction ([2]; PCP 66.6 ppm, H2O2/PCP ratio 27.6): 98.9% | PCP destruction ([2]; PCP 76.2 ppm, H2O2/PCP ratio 20.7): 95.9%
